Values quoted from earlier work, collected in patent US20130344444A1, “PROCESS FOR MAKING LITHOGRAPHIC PRINTING PLATE” (FUJIFILM Corporation, priority 2011, published 2013).

For `OCc1ccccc1` [Benzyl alcohol, reference compound], the solubility in water is listed as 4.0 g/100 mL of water.
In the case of `CCCCC(CC)COCCOCCO` (stereo not drawn) [Diethylene glycol mono-2-ethylhexyl ether], the solubility in water is listed as 0.3 g/100 mL of water.
In the case of `CCCCCCOCCO` [Ethylene glycol mono-n-hexyl ether], the solubility in water is given as 1.0 g/100 mL of water.
For `CC(C)(C)OCCO` [Ethylene glycol mono-t-butyl ether], the “solubility in water (in words)” value is given as “mutually mixing”.
In the case of `OCCOc1ccccc1` [Ethyleneglycol monophenyl ether, reference compound], the solubility in water is listed as 2.7 g/100 mL of water.
For `CCCCOCC(C)O` (stereo not drawn) [Propylene glycol mono-n-butyl ether], the solubility in water is given as 4.4 g/100 mL of water.
